The values below come from EPA's ToxValDB 9.5.

The term LOAEL denotes the lowest tested level that showed an adverse finding. The term NOAEL denotes the highest tested level that showed no adverse finding.

In one data set the test system is Monkey. Particulars: oral.
The subject of the next data set is Oryctolagus sp. The note with it: acute, dermal; for LOAEL: duration: 1 days.
The test system of a further data set is Bird. Particulars: subchronic, duration: 8 week, oral, drinking water, M, Japanese quail.
The test system of another data set is Labeo boga. The note with it: whole body.
Another data set concerns Rattus norvegicus. Particulars: subchronic; duration: 90 days; oral; diet; M; Crl:CD(SD) BR; Body Weight Changes: Weight gain decrease + Absolute Organ Weight: Liver increase + Relative Organ Weight: Liver increase + Histopathology: ….
Another data set has as its system Megascops sp. The note with it: oral.
In the next data set the test system is Neovison sp. Particulars: repeat dose other; oral; Mink.
Setting [1] is: chronic, duration: 26 weeks, M, Cynomolgus, Body Weight: 12% decrease by week 10.
The mark [2] stands for this setting: chronic, duration: 26 weeks, M, Cynomolgus, Endocrine: Significant decrease in serum TT4 (27-35%) and FT4 (30-38%).
Where [3] appears, read: short-term, duration: 7 day, M, Medaka, liver IL-1Beta/Beta-actin mRNA ratio + liver IL-6/Beta-actin mRNA ratio.
Setting [4] is: short-term, duration: 21 day, M/F, mRNA expression levels of IgM in spleen + mRNA expression levels of IL-1 beta in spleen + mRNA expression levels of myd88 in spleen.

In the case of `O=C([O-])C(F)(F)C(F)(F)C(F)(F)C(F)(F)C(F)(F)C(F)(F)C(F)(F)F.[NH4+]` [Ammonium perfluorooctanoate], the LOAEL in the data set with Monkey (setting [1]) worked out at 20 mg/kg-day; with Monkey (setting [2]), 10 mg/kg-day; in the data set on Monkey (chronic, duration: 26 weeks, M, Cynomolgus, Hepatic: 36% increase in absolute liver weight at ?3 mg/kg/day / increased serum triglyceride levels at 30/20 mg/kg/day), 3 mg/kg-day; in the data set with Monkey (short-term, duration: 2 weeks, M/F, Rhesus, Death: Unspecified number out of four died on week 2), 100 mg/kg-day; in the data set on Monkey (subchronic, duration: 90 days, M/F, Rhesus, Body Weight: 33% body weight loss by week 6 + Death: One male and two females died during weeks 7-12), 30 mg/kg-day; with Monkey (subchronic, duration: 90 days, M/F, Rhesus, Gastrointestinal: Emesis + Immunotoxicological: Atrophy of lymphoid follicles in spleen and lymph nodes + Neurological: Hypoactivity and …), 30 mg/kg-day. The lowest observed adverse effect level (LOAEL) in the data set on Oryctolagus sp. (Albino, Ocular: Moderate eye irritation) stood at 100 mg; with Oryctolagus sp. (M, New Zealand, Death: 14-day LD50) it was 4300 mg/kg-day. In addition, the NOAEL in the data set on Monkey (setting [1]) is 10 mg/kg-day; with Monkey (setting [2]), 3 mg/kg-day; in the data set on Monkey (chronic, duration: 26 weeks, M, Cynomolgus, Immunotoxicological: No histological alterations + Neurological: No histological alterations + Reproductive: No histological alterations), 20 mg/kg-day; in the data set on Monkey (subchronic, duration: 30 days, M, Cynomolgus, Endocrine: No alterations in serum levels of thyroid hormones and TSH and histopathology of adrenals + Reproductive: No alterations in serum…) it was 20 mg/kg-day; with Monkey (subchronic, duration: 90 days, M/F, Rhesus) it was 30 mg/kg-day; in the data set on Monkey (subchronic, duration: 90 days, M/F, Rhesus, Body Weight: 33% body weight loss by week 6 + Gastrointestinal: Emesis + Immunotoxicological: Atrophy of lymphoid follicles in spleen and …) it was 10 mg/kg-day. Moreover, the no-observed-adverse-effect level (NOAEL) in the data set with Monkey (subchronic, duration: 90 days, M/F, Rhesus, Reproductive: No histological alterations in testes or ovaries) was 100 mg/kg-day; in the data set on Oryctolagus sp. (duration: 24 hours, Albino) it was 500 mg; with Rattus norvegicus, 0.096 mg/kg-day. The LOEL turned out to be 2.1 mg/kg-day with Bird (PHA skin test (DTH response)); 50 mg/L with Labeo boga (setting [3]); 10 mg/L in the data set on Labeo boga (short-term, duration: 7 day, M, Medaka, liver TNF-alpha/Beta-actin mRNA ratio); 1 mg/L in the data set on Labeo boga (short-term, duration: 15 day, M/F, Medaka, c-type lysozyme mRNA expression); 0.1 mg/L with Labeo boga (short-term, duration: 21 day, M/F, Atlantic Salmon, cortisol); 0.05 mg/L in the data set on Labeo boga (short-term, duration: 21 day, M/F, mRNA expression levels of IgD in spleen + mRNA expression levels of IgZ in spleen + mRNA expression levels of IL-21 in spleen + mRNA …). Further, the LOEL in the data set with Labeo boga (setting [4]) is 0.1 mg/L; in the data set on Labeo boga (subchronic, duration: 48 day, M/F, Atlantic Salmon, cortisol) it was 0.1 mg/L; in the data set on Labeo boga (subchronic, duration: 56 day, M/F, Atlantic Salmon, cortisol), 0.1 mg/L. The NOEL turned out to be 0.2 mg/kg-day with Bird (PHA skin test (DTH response)); 2.1 mg/kg-day with Bird (bacteremia (subsequent to E. coli challenge) + cellulitis (subsequent to E. coli challenge) + chemiluminescence of ROS produced by innate …); 10 mg/L with Labeo boga (setting [3]); 1 mg/L in the data set on Labeo boga (short-term, duration: 15 day, M/F, Medaka, complement component C3-1 mRNA expression); 0.05 mg/L in the data set on Labeo boga (setting [4]); 0.1 mg/L with Labeo boga (subchronic, duration: 48 day, M/F, Atlantic Salmon, fresh weight + length + thymus: thymus somatic index + thymus: thymus volume).

For `[F-].[Na+]` [Sodium fluoride], the lowest-observed-adverse-effect level (LOAEL) turned out to be 32 mg/kg-day in the data set on Megascops sp. and 52.8 mg/kg-day with Neovison sp.. The NOAEL is 7.8 mg/kg-day with Megascops sp. and 31.4 mg/kg-day with Neovison sp..
